Reference: ChEMBL document CHEMBL3774368, “1,2,4-Triazolyl octahydropyrrolo[2,3-b]pyrroles: A new series of potent and selective dopamine D3 receptor antagonists” (Bioorg Med Chem, 2016)
In brackets after ≈: the same amount, converted by molar mass. Activity calls are given as the source filed them. The calls are words filed in the database; no cut-off is given here.

Columns and labels:
[1] = molecular target: T1, D(2) dopamine receptor (Homo sapiens, UniProt P14416); experiment: Displacement of [3H]-spiperone from human dopamine D2 receptor expressed in CHO-K1 cell membranes after 120 mins by liquid scintillation counter method
[2] = molecular target: Voltage-gated inwardly rectifying potassium channel KCNH2 (Homo sapiens, UniProt Q12809); experiment: Inhibition of human ERG tail current expressed in HEK293 cells after 5 mins by patch clamp assay
[3] = molecular target: T1, D(2) dopamine receptor; experiment: Antagonist activity at human dopamine D2L receptor expressed in CHO cells assessed as inhibition of dopamine-mediated Ca+2 stimulation pretreated for 10 mins followed by addition of dopamine by fluo-4 AM dye-based FLIPR assay; format: cell-based
[4] = molecular target: T2, Muscarinic acetylcholine receptor M1 (Homo sapiens, UniProt P11229); experiment: Antagonist activity at recombinant human muscarinic M1 receptor expressed in CHO-K1 cells assessed as inhibition of acetylcholine induced calcium mobilization preincubated for 10 mins followed by acetylcholine addition measured after 1 hr by fluo-4 AM dye-based FLIPR assay; format: functional, cell-based
T2 sequence (P11229 whole entry): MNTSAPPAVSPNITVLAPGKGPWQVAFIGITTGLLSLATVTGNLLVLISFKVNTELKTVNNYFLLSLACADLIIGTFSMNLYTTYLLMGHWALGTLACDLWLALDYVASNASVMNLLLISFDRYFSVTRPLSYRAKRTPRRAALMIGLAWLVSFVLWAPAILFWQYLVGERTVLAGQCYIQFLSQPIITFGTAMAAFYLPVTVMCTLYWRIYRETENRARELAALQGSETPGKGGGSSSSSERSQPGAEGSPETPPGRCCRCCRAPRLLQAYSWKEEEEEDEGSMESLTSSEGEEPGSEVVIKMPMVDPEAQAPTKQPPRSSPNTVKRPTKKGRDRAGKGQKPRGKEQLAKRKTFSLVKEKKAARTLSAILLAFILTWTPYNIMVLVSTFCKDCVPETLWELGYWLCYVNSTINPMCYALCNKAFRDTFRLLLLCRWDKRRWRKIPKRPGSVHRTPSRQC

[5] = molecular target: Muscarinic acetylcholine receptor M3 (Homo sapiens, UniProt P20309); experiment: Antagonist activity at recombinant human muscarinic M3 receptor expressed in CHO-K1 cells assessed as inhibition of acetylcholine induced calcium mobilization preincubated for 10 mins followed by acetylcholine addition measured after 1 hr by fluo-4 AM dye-based FLIPR assay; format: functional, cell-based
[6] = molecular target: T3, Cytochrome P450 1A2 (Homo sapiens, UniProt P05177); experiment: Inhibition of recombinant human CYP1A2 expressed in baculosomes preincubated for 10 mins followed by cofactor addition measured every minute for 10 mins using ethoxyresorufin as substrate by CYPEX assay
T3 sequence (P05177 whole entry): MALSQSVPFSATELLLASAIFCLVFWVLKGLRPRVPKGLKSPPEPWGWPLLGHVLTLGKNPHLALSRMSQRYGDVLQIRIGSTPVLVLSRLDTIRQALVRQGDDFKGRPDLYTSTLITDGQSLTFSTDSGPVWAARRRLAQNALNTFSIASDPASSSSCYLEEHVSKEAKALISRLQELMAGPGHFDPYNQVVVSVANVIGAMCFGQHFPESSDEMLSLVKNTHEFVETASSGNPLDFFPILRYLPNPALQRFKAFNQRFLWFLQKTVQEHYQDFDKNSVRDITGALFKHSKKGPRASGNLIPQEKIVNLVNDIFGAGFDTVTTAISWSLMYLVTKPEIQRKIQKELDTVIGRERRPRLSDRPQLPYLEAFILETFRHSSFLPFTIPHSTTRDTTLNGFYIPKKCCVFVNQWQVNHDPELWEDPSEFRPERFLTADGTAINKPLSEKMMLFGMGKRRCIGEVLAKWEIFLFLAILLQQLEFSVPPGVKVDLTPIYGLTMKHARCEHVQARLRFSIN

[7] = molecular target: Cytochrome P450 2C9 (Homo sapiens, UniProt P11712); experiment: Inhibition of recombinant human CYP2C9 expressed in baculosomes preincubated for 10 mins followed by cofactor addition measured every minute for 10 mins using 7-methoxy-4-trifluoromethylcoumarin-3-acetic acid as substrate by CYPEX assay
[8] = molecular target: Cytochrome P450 2C19 (Homo sapiens, UniProt P33261); experiment: Inhibition of recombinant human CYP2C19 expressed in baculosomes preincubated for 10 mins followed by cofactor addition measured every minute for 10 mins using 3-butyryl-7-methoxycoumarin as substrate by CYPEX assay
[9] = molecular target: Cytochrome P450 2D6 (Homo sapiens, UniProt P10635); experiment: Inhibition of recombinant human CYP2D6 expressed in baculosomes preincubated for 10 mins followed by cofactor addition measured every minute for 10 mins using 4-methylaminomethyl-7-methoxycoumarin as substrate by CYPEX assay
[10] = molecular target: T4, Cytochrome P450 3A4 (Homo sapiens, UniProt P08684); experiment: Inhibition of recombinant human CYP3A4 expressed in baculosomes preincubated for 10 mins followed by cofactor addition measured every minute for 10 mins using diethoxyflourescein as substrate by CYPEX assay
[11] = molecular target: T4, Cytochrome P450 3A4; experiment: Inhibition of recombinant human CYP3A4 expressed in baculosomes preincubated for 10 mins followed by cofactor addition measured every minute for 10 mins using 7-benzyloxyquinoline as substrate by CYPEX assay
[12] = Fraction absorbed in portal vein cannulated Sprague-Dawley rat model; settings: in vivo
[13] = Volume of distribution at steady state in portal vein cannulated Sprague-Dawley rat model; settings: in vivo
[14] = Clearance in portal vein cannulated Sprague-Dawley rat blood; settings: whole blood
[15] = Half life in portal vein cannulated Sprague-Dawley rat model; settings: in vivo
[16] = in vitro; settings: rat, liver microsomes, CLH
[17] = in vitro; settings: human, liver microsomes, CLH
[18] = molecular target: T5, D(3) dopamine receptor (Homo sapiens, UniProt P35462); experiment: Displacement of [3H]-spiperone from human dopamine D3 receptor expressed in CHO-K1 cell membranes after 90 mins by liquid scintillation counter method
[19] = molecular target: T5, D(3) dopamine receptor; experiment: Antagonist activity at human dopamine D3 receptor expressed in CHO-K1 cell membranes after 90 mins by [35S]GTP-gamma-S binding assay in presence of 3 nM quinelorane
[20] = Apparent permeability across apical to basolateral side in human Caco2 cells; format: ADME, cell-based; settings: Caco-2
[21] = Efflux ratio of apparent permeability across basolateral to apical side in human Caco2 cells; format: ADME, cell-based; settings: Caco-2
[22] = Fraction unbound in Sprague-Dawley rat blood
[23] = Fraction unbound in Sprague-Dawley rat brain
[24] = in vivo; settings: Sprague-Dawley, rat
Description: Hepatic extraction ratio in portal vein cannulated Sprague-Dawley rat model

[25] = in vivo; settings: Sprague-Dawley, rat, po
Description: Oral bioavailability in portal vein cannulated Sprague-Dawley rat model

[26] = Solubility of compound; format: physicochemical
[27] = Permeability across apical to basolateral side in human Caco2 cells; settings: for Papp A→B: Caco-2, permeability
[28] = molecular target: T6, D(4) dopamine receptor (Homo sapiens, UniProt P21917); experiment: (§1) Binding affinity to dopamine D4 receptor (unknown origin)
T6 sequence (P21917 whole entry): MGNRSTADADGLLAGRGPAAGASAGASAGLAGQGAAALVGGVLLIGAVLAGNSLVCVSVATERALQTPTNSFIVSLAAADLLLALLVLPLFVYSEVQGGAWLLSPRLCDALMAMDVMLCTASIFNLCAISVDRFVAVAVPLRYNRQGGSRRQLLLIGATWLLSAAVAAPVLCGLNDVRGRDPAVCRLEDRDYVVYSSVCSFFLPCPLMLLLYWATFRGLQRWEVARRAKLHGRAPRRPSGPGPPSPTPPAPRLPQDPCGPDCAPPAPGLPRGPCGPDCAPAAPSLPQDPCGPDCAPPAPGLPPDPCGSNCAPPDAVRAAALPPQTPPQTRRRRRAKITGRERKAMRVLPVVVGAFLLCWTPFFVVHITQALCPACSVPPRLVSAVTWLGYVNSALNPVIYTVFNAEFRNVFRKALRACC

[29] = in vitro; settings: human, Caco-2
Description: Efflux ratio of permeability across basolateral to apical side in human Caco2 cells

[30] = test system: Liver microsome; settings: rat, microsomes, 0.5 µM
[31] = test system: Liver microsome; settings: human, microsomes, 0.5 µM
[32] = molecular target: D(1A) dopamine receptor (Homo sapiens) (UniProt P21728); experiment: Binding affinity to dopamine D1 receptor (unknown origin)
[33] = molecular target: T7, D(4) dopamine receptor (Homo sapiens) (UniProt P21917); experiment: as §1
T7 sequence (whole entry): T6 sequence (P21917 whole entry)

Sequence of Cytochrome P450 2C9 (P11712 whole entry): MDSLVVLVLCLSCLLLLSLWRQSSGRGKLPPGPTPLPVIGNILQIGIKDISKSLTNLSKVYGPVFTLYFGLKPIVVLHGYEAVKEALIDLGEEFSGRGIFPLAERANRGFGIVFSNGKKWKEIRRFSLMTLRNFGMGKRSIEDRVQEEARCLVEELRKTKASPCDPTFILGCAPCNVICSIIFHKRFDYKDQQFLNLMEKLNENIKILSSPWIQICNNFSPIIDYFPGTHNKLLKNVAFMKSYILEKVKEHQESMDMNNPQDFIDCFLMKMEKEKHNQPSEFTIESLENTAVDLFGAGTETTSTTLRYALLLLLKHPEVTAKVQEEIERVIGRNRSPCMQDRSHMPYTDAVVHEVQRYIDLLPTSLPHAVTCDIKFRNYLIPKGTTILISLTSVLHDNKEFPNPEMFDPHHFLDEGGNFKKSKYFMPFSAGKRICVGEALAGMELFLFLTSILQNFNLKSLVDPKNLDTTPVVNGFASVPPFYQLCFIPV
Sequence of Cytochrome P450 2D6 (P10635 whole entry): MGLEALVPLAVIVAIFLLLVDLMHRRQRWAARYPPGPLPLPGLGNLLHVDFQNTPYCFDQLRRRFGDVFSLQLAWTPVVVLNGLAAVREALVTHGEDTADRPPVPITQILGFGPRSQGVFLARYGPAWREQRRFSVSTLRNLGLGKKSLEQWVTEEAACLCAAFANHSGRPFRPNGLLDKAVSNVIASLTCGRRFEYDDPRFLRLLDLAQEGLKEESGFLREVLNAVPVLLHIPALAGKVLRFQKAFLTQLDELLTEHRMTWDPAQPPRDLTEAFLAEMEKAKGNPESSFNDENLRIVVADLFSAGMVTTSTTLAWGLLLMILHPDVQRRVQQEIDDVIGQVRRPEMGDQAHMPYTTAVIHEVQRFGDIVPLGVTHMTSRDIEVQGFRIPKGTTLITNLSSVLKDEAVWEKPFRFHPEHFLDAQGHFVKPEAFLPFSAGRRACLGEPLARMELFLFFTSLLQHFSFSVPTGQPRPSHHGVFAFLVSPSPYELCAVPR
T1 sequence (P14416 whole entry): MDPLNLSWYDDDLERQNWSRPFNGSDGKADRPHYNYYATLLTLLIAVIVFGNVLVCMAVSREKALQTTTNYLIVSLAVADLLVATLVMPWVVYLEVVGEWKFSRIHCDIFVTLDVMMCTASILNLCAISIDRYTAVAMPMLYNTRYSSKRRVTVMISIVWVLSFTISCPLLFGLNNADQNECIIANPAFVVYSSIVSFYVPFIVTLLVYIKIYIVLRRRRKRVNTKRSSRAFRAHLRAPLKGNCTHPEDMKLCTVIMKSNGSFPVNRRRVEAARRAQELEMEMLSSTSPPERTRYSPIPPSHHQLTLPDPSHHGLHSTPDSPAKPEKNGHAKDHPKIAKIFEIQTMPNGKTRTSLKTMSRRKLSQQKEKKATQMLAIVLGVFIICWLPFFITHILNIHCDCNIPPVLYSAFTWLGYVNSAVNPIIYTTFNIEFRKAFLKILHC
Sequence of Voltage-gated inwardly rectifying potassium channel KCNH2 (Q12809 whole entry): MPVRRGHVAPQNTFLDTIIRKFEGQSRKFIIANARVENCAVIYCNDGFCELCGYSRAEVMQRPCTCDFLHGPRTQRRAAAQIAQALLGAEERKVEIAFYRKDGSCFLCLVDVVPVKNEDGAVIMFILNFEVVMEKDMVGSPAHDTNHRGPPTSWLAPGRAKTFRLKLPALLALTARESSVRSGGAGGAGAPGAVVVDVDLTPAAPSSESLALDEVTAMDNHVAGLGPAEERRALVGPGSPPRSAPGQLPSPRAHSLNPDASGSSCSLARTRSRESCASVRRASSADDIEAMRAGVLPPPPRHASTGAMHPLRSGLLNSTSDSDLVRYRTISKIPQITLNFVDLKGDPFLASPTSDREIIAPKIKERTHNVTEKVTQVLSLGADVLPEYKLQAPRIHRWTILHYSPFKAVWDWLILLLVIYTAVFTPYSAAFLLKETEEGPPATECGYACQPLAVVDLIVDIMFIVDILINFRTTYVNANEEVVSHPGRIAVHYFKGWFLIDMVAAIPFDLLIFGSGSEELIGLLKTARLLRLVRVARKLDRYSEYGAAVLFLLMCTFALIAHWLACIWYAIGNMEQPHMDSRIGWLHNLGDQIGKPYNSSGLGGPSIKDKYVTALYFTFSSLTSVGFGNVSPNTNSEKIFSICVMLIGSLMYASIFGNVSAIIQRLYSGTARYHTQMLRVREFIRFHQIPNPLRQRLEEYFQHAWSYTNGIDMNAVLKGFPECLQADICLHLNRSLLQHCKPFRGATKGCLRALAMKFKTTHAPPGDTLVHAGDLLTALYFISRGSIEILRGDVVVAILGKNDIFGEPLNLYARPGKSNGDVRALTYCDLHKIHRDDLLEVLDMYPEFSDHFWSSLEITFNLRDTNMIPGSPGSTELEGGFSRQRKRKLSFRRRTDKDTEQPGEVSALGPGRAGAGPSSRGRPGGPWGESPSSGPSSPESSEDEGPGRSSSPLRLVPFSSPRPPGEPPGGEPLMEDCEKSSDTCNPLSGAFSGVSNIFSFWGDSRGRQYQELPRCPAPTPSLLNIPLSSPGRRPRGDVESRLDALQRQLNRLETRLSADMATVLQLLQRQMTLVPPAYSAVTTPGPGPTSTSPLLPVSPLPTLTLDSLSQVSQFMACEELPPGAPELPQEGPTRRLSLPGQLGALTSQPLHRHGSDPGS
Sequence of Cytochrome P450 2C19 (P33261 whole entry): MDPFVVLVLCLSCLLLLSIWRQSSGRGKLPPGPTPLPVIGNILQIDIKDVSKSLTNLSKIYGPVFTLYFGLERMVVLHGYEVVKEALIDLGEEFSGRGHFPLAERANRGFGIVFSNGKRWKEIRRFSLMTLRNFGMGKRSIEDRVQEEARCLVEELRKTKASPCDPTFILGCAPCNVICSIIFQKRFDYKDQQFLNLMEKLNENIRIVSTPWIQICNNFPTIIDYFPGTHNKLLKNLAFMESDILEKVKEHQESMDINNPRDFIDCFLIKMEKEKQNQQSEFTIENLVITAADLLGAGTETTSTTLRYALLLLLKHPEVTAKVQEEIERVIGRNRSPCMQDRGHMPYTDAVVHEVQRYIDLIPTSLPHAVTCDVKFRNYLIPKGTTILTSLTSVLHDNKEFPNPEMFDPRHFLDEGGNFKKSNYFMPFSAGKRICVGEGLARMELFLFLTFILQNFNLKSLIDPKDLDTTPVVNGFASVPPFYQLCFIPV
T5 sequence (P35462 whole entry): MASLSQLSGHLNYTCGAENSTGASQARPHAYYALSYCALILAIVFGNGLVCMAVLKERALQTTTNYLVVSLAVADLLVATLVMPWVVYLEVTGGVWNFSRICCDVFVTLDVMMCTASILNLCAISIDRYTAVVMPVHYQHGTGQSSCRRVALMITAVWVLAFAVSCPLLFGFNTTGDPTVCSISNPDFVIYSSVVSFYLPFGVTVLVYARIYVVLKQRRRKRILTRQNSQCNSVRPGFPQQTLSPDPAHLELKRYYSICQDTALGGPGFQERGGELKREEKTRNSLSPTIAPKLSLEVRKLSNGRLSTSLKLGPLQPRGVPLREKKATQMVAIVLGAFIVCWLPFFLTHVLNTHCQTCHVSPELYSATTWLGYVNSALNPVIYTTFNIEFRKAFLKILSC
T4 sequence (P08684 whole entry): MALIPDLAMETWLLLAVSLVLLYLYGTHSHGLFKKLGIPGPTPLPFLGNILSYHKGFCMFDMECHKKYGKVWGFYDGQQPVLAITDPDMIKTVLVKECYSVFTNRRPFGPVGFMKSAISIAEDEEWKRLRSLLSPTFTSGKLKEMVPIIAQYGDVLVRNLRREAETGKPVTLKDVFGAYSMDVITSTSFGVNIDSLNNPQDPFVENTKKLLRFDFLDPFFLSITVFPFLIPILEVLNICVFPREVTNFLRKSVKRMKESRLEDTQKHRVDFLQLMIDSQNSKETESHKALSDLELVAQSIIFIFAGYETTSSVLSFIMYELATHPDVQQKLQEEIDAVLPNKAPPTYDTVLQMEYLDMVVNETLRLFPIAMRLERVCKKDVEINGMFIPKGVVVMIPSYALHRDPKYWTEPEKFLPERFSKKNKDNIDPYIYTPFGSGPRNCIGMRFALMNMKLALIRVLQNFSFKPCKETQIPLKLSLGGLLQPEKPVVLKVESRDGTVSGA
Sequence of Muscarinic acetylcholine receptor M3 (P20309 whole entry): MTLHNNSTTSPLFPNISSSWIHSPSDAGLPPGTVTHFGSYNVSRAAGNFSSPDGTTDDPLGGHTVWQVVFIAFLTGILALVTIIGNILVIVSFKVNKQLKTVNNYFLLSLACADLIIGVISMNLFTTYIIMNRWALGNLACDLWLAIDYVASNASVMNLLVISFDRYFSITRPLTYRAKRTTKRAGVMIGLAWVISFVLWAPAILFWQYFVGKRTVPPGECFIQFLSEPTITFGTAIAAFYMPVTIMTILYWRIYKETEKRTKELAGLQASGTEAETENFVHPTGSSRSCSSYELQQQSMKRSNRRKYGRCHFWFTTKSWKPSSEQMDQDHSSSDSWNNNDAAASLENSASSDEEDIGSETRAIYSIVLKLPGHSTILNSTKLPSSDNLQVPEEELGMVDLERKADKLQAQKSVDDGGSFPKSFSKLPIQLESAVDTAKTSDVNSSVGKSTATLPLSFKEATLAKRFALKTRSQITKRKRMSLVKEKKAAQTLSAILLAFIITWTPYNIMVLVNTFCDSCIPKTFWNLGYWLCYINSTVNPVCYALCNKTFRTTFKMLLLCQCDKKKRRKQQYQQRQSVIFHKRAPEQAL
Sequence of D(1A) dopamine receptor (Homo sapiens) (P21728 whole entry): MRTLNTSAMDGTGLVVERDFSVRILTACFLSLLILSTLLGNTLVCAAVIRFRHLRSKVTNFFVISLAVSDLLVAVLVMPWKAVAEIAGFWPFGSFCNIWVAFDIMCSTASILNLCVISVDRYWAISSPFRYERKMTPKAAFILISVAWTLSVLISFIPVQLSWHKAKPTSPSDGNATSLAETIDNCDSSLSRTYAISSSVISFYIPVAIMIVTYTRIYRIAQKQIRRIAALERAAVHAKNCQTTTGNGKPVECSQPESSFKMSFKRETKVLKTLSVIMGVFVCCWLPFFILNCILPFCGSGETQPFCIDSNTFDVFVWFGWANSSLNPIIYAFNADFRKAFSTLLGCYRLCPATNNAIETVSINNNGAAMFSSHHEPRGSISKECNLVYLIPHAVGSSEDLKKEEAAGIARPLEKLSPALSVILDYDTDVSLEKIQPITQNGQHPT

`Cc1ncoc1-c1nnc(SCCCN2CC3CCN(c4ccccc4)C3C2)n1C` (stereo in doubt; 6b) showed a Ki [1] of 0.251 µM, an IC50 [2] of 1.26 µM and a Ki [3] of 0.158 µM. It also gave a Ki [4] of 1 µM, a Ki [5] of 1.26 µM and an IC50 [6] greater than 1 µM. It also gave an IC50 [7] greater than 1 µM, an IC50 [8] greater than 1 µM and an IC50 [9] greater than 1 µM. It also gave an IC50 [10] greater than 1 µM, an IC50 [11] greater than 1 µM and a Fa [12] of 50%. For the same molecule, the Vd [13] was 2.2 L/kg, the clearance [14] was 80.1 mL/min/kg and the half-life [15] was 18 min. For the same molecule, the microsomal CLint at 0.5 µM [16] was 364 µL/min/mg and the microsomal CLint at 0.5 µM [17] was 88 µL/min/mg.

In the case of `Cc1ncoc1-c1nnc(SCCCN2CC3CCN(c4ccc(C(F)(F)F)cc4F)C3C2)n1C` (stereo in doubt; 8b), the Ki [18] is reported as 0.00126 µM, the Ki [1] is reported as 0.0631 µM and the IC50 [2] is reported as 0.398 µM. For the same molecule, the Ki [3] was 0.0501 µM, the Ki [19] was 0.00158 µM and the Ki [4] was 0.11 µM. The Ki [5] was 0.245 µM, the IC50 [6] was greater than 3 µM and the IC50 [7] was greater than 3 µM. It also gave an IC50 [8] greater than 3 µM, an IC50 [9] greater than 3 µM and an IC50 [10] greater than 3 µM. For the same molecule, the IC50 [11] was greater than 3 µM, the Fa [12] was 79% and the Vd [13] was 1.1 L/kg. For the same molecule, the clearance [14] was 20 mL/min/kg, the half-life [15] was 90 min and the Papp A→B [20] was 5.5 ×10⁻⁶ cm/s. For the same molecule, the efflux ratio [21] was 0.55, the fraction unbound [22] was 0.0025 and the fraction unbound [23] was 0.014. The hepatic extraction ratio [24] was 0.07, the bioavailability [25] was 73% and the microsomal CLint at 0.5 µM [16] was 43 µL/min/mg. For the same molecule, the microsomal CLint at 0.5 µM [17] was 177 µL/min/mg.

For `Cn1c(SCCCN2CC3CCN(c4ccc(C(F)(F)F)cc4)C3C2)nnc1-c1cc[nH]c(=O)c1` (stereo in doubt; 55b), the Ki [18] was 0.00794 µM, the Ki [1] was 0.631 µM and the IC50 [2] was 2.51 µM. The Ki [4] was 1.74 µM, the Ki [5] was 1.1 µM and the solubility [26] was 200 µg/mL (≈ 396 µM). For the same molecule, the IC50 [6] was greater than 20 µM, the IC50 [7] was greater than 20 µM and the IC50 [8] was greater than 20 µM. For the same molecule, the IC50 [9] was greater than 20 µM, the IC50 [10] was greater than 20 µM and the IC50 [11] was greater than 20 µM. It also gave a Fa [12] of 5%, a Vd [13] of 4.2 L/kg and a clearance [14] of 37 mL/min/kg. For the same molecule, the half-life [15] was 126 min, the fraction unbound [22] was 0.044 and the fraction unbound [23] was 0.022. The Papp A→B [27] was 4.2 ×10⁻⁶ cm/s, the Ki [28] was 15.8 µM and the hepatic extraction ratio [24] was 0.4. For the same molecule, the bioavailability [25] was 3%, the microsomal CLint at 0.5 µM [16] was 47 µL/min/mg and the microsomal CLint at 0.5 µM [17] was 33 µL/min/mg. It also gave an efflux ratio [29] of 3.8.

In the case of `Cn1c(SCCCN2CC3CCN(c4ccc(C(F)(F)F)cc4)C3C2)nnc1-c1ccc(=O)n(C)c1` (stereo in doubt; 57b) [listing 1 of 2 here], the Ki [18] is reported as 0.00501 µM, the Ki [4] is reported as 0.38 µM and the Ki [5] is reported as 0.479 µM. It also gave a Papp A→B [27] of 5.3 ×10⁻⁶ cm/s, a CLH [30] of 30 µL/min and a CLH [31] of 111 µL/min.

For `Cn1c(SCCCN2CC3CCN(c4ccc(C(F)(F)F)cc4)C3C2)nnc1-c1ccc(=O)n(C)c1` (stereo in doubt; 57b) [listing 2 of 2 here], the Activity [32] was “inactive” and the Activity [33] was “inactive”.

`Cn1c(SCCCN2CC3CCN(c4ccccc4)C3C2)nnc1C1CCOCC1` (stereo in doubt; 62a) [listing 1 of 2 here] gave a Ki [18] of 0.00631 µM, a Ki [4] of 1.02 µM and a Ki [5] of 1.45 µM. It also gave a solubility [26] greater than 2000 µg/mL, an IC50 [6] greater than 17 µM and an IC50 [7] greater than 17 µM. For the same molecule, the IC50 [8] was greater than 17 µM, the IC50 [9] was greater than 17 µM and the IC50 [10] was greater than 17 µM. The IC50 [11] was greater than 17 µM, the Fa [12] was 5.5% and the Vd [13] was 0.44 L/kg. The clearance [14] was 20 mL/min/kg, the half-life [15] was 18 min and the fraction unbound [22] was 0.31. For the same molecule, the fraction unbound [23] was 0.33, the permeability ([27]; Caco-2) was “permeable” and the bioavailability [25] was less than 1%. The microsomal CLint at 0.5 µM [16] was 272 µL/min/mg and the microsomal CLint at 0.5 µM [17] was 26 µL/min/mg.

In the case of `Cn1c(SCCCN2CC3CCN(c4ccccc4)C3C2)nnc1C1CCOCC1` (stereo in doubt; 62a) [listing 2 of 2 here], the Activity [32] is reported as “inactive” and the Activity [33] is reported as “inactive”.
